Among the data in patent US12281057B2 (VERTEX PHARMACEUTICALS INCORPORATED, priority 2017, dated 2025) are IC50 values, retold here.

SMILES strings stand for the structures.

T1 sequence (Q9Y5Y9 126-1722 limits assumed): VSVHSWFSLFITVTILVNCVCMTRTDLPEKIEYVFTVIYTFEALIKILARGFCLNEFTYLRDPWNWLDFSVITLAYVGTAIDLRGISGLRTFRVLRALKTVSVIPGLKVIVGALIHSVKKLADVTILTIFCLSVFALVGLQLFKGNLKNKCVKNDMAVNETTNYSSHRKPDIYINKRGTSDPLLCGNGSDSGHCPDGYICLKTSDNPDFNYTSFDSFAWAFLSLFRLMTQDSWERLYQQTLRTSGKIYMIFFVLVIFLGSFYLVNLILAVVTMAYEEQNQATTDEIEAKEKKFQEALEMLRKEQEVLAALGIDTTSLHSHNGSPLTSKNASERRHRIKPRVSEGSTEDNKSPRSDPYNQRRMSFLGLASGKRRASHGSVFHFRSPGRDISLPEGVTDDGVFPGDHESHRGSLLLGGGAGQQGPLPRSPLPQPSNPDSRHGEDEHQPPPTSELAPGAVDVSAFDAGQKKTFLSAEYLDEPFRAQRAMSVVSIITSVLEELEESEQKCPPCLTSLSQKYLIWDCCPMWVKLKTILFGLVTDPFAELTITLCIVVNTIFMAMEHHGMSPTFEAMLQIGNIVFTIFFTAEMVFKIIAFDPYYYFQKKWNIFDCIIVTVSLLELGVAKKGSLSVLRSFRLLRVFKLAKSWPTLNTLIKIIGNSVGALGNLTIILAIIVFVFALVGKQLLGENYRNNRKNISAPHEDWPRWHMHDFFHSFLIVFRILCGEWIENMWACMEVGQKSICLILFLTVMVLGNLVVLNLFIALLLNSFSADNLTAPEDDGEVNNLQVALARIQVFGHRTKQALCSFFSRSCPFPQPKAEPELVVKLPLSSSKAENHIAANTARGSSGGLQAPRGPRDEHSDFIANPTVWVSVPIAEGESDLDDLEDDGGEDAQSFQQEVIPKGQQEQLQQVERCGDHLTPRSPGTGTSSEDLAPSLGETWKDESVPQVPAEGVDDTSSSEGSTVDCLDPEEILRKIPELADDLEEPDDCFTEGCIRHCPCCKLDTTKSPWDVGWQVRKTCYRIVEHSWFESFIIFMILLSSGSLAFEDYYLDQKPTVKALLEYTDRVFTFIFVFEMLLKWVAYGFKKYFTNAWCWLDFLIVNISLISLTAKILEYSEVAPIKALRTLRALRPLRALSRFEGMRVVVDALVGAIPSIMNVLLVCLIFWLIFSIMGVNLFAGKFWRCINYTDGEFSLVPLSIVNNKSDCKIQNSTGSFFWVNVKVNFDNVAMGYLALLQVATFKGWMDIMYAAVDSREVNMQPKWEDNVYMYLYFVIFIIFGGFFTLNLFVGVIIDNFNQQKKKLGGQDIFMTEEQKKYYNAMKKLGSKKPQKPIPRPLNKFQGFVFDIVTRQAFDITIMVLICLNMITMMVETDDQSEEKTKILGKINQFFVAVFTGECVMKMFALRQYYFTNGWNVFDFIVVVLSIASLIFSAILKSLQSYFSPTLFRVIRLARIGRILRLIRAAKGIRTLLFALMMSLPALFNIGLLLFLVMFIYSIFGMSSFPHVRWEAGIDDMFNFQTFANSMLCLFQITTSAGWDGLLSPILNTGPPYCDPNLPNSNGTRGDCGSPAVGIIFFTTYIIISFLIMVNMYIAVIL

One assay has as its target T1, truncated form of human NaV 1.8 with full channel activity (Homo sapiens, UniProt Q9Y5Y9). Briefly: E-VIPR Assay Method B for detecting and measuring Nav inhibition (HEK cells, membrane potential FRET dyes, electrical stimulation). As to conditions: HEK cells expressing human NaV 1.8, Table 20B, read-out: Nav 1.8 MedChem Optical Assay EVIPR Assay Method B HS IC50. The assay is classed as cell-based. The text has this:
[formula] where X is the ratio response of the test compound. […] E-VIPR Assay Method B for Detecting and Measuring Nav Inhibition Properties Sodium ion channels are voltage-dependent proteins that can be activated by inducing membrane voltage changes by applying electric fields. The electrical stimulation instrument and methods of use, referred to as E-VIPR, are described in International Publication No. WO 2002/008748 A3 and C.-J. Huang et al. Characterization of voltage-gated sodium channel blockers by electrical stimulation and fluorescence detection of membrane potential, 24 Nature Biotech. 439-46 (2006), both of which are incorporated by reference in their entirety. The instrument comprises a microtiter plate handler, an optical system for exciting the coumarin dye while simultaneously recording the coumarin and oxonol emissions, a waveform generator, a current- or voltage-controlled amplifier, and parallel electrode pairs that are inserted into assay plate wells. Under integrated computer control, this instrument passes user-programmed electrical stimulus protocols to cells within the wells of the microtiter plate. […] Sigma #F4135), 1% NEAA (Non-Essential Amino Acids, Life Tech #11140), 1% HEPES (Life Tech #15630), 1% Pen-Strep (Penicillin-Streptomycin; […] Cells were expanded in vented cap flasks, with 95% humidity and 5% CO2. Reagents and Stock Solutions: • 100 mg/mL Pluronic F-127 (Sigma #P2443), in dry DMSO • Compound Plates: […] 5% KIR 2.1 Bacmam virus (produced in-house), prepared as described in Section 3.3 of J. A. Fornwald et al., Gene Expression in Mammalian Cells Using BacMam, a Modified Baculovirus System, 1350 Methods in Molecular Biology 95-116 (2016), the entire contents of which are incorporated by reference. • 5 mM DiSBAC6(3) (a voltage sensitive oxonol acceptor) (Aurora #00-100-010) in dry DMSO • 5 mM CC2-DMPE (a membrane-bound coumarin phospholipid FRET donor) (Aurora #00-100-008) in dry DMSO • 89 mM VABSC-1 in H2O. […] The solution was made by adding 10% Pluronic F127 stock equal to combined volumes of CC2-DMPE and DiSBAC6(3). The order of preparation was first mix Pluronic and CC2-DMPE, then add DiSBAC6(3), then while vortexing add Bath1/β-Cyclodextrin. […] Assay Protocol: […] Final DMSO concentration for all wells in the assay was 0.625% (0.75% DMSO was supplemented to the Compound Loading Buffer for a final DMSO concentration of 0.625%). 2) Hexyl Dye Solution was prepared. 3) Cell plates were prepared. On the day of the assay, the media was aspirated, and the cells were washed three times with 80 μL of Bath-1 buffer, maintaining 25 μL residual volume in each well. 4) 25 μL per well of Hexyl Dye Solution was dispensed into the cell plates. The cells were incubated for 20 minutes at room temp or ambient conditions in darkness. 5) 80 μL per well of Compound Loading Buffer was dispensed into compound plates. […] The mixture was incubated for 30 minutes at room temp/ambient conditions. […] A pre-stimulus recording was performed for 0.5 seconds to obtain the un-stimulated intensities baseline. The stimulatory waveform was followed by 0.5 seconds of post-stimulation recording to examine the relaxation to the resting state. Data Analysis: Data were analyzed and reported as normalized ratios of emission intensities measured in the 460 nm and 580 nm channels. The response as a function of time was reported as the ratios obtained using the following formula: [formula] The data were further reduced by calculating the initial (Ri) and final (Rf) ratios. These were the average ratio values during part or all of the pre-stimulation period and during sample points during the stimulation period. The fluorescence ratio (Rf/Ri) was then calculated and reported as a function of time. Control responses were obtained by performing assays in the presence of the positive control, and in the absence of pharmacological agents (DMSO vehicle negative control). Responses to the negative (N) and positive (P) controls were calculated as above. […]
For the compound `COc1cc(Cl)ccc1Oc1cc(C(F)(F)C(F)(F)F)ccc1C(=O)Nc1cccc(C(N)=O)c1` [Compound 247, N-(3-carbamoylphenyl)-2-(4-chloro-2-methoxyphenoxy)-4-(1,1,2,2,2-pentafluoroethyl)benzamide], the half-inhibitory concentration (IC50) (as a rule, the concentration that inhibits the measured activity by half) is 33 nM. Regarding `COc1cc(F)ccc1Oc1cc(C(F)(F)C(F)(F)F)ccc1C(=O)Nc1cccc(C(N)=O)c1` [Compound 248, N-(3-carbamoylphenyl)-2-(4-fluoro-2-methoxyphenoxy)-4-(1,1,2,2,2-pentafluoroethyl)benzamide], the IC50 was determined as 11 nM. As for `NC(=O)c1cccc(NC(=O)c2ccc(C(F)(F)C(F)(F)F)cc2Oc2ccc(F)cc2)c1` [Compound 249, N-(3-carbamoylphenyl)-2-(4-fluorophenoxy)-4-(1,1,2,2,2-pentafluoroethyl)benzamide], the concentration for half-maximal inhibition (IC50) is 60 nM. For `COc1ccc(Oc2cc(C(F)(F)C(F)(F)F)ccc2C(=O)Nc2cccc(C(N)=O)c2)cc1F` [Compound 250, N-(3-carbamoylphenyl)-2-(3-fluoro-4-methoxyphenoxy)-4-(1,1,2,2,2-pentafluoroethyl)benzamide], the 50% inhibitory concentration (IC50) worked out at 65 nM. Regarding `COc1ccc(Oc2cc(C(F)(F)C(F)(F)F)ccc2C(=O)Nc2cccc(C(N)=O)c2)c(Cl)c1` [Compound 251, N-(3-carbamoylphenyl)-2-(2-chloro-4-methoxyphenoxy)-4-(1,1,2,2,2-pentafluoroethyl)benzamide], the IC50 worked out at 91 nM. As for `COc1ccc(Oc2cc(C(F)(F)C(F)(F)F)ccc2C(=O)Nc2cccc(C(N)=O)c2)c(OC)c1` [Compound 252, N-(3-carbamoylphenyl)-2-(2,4-dimethoxyphenoxy)-4-(1,1,2,2,2-pentafluoroethyl)benzamide], the half-inhibitory concentration (IC50) was 36 nM. `COc1ccc(NC(=O)c2c(Oc3ccc(F)cc3Cl)cccc2C(F)(F)F)cc1C(N)=O` [Compound 253, N-(3-carbamoyl-4-methoxyphenyl)-2-(2-chloro-4-fluorophenoxy)-6-(trifluoromethyl)benzamide]: the IC50 is 880 nM. For `NC(=O)c1cc(NC(=O)c2c(Oc3ccc(F)cc3Cl)cccc2C(F)(F)F)ccc1Cl` [Compound 254, N-(3-carbamoyl-4-chlorophenyl)-2-(2-chloro-4-fluorophenoxy)-6-(trifluoromethyl)benzamide], the IC50 is 260 nM. Same read-out and setting: as for `Cc1ccc(C(N)=O)cc1NC(=O)c1c(Oc2ccc(F)cc2Cl)cccc1C(F)(F)F` [Compound 255, N-(5-carbamoyl-2-methylphenyl)-2-(2-chloro-4-fluorophenoxy)-6-(trifluoromethyl)benzamide], the figure is 7200 nM; as for `NC(=O)c1ccc(NC(=O)c2c(Oc3ccc(F)cc3Cl)cccc2C(F)(F)F)cn1` [Compound 256, 5-[[2-(2-chloro-4-fluoro-phenoxy)-6-(trifluoromethyl)benzoyl]amino]pyridine-2-carboxamide], 550 nM; as for `NC(=O)c1cccc(NC(=O)c2c(Oc3ccc(F)cc3)cccc2C(F)(F)F)c1` [Compound 257, N-(3-carbamoylphenyl)-2-(4-fluorophenoxy)-6-(trifluoromethyl)benzamide], 415 nM. As to `Cc1cc(F)ccc1Oc1cccc(C(F)(F)F)c1C(=O)Nc1cccc(C(N)=O)c1` [Compound 258, N-(3-carbamoylphenyl)-2-(4-fluoro-2-methylphenoxy)-6-(trifluoromethyl)benzamide], the IC50 worked out at 85 nM. Turning to `COc1cc(F)ccc1Oc1cccc(C(F)(F)F)c1C(=O)Nc1cccc(C(N)=O)c1` [Compound 259, N-(3-carbamoylphenyl)-2-(4-fluoro-2-methoxyphenoxy)-6-(trifluoromethyl)benzamide], the concentration for half-maximal inhibition (IC50) was determined as 65 nM. Same read-out and setting: as for `NC(=O)c1cccc(NC(=O)c2c(Oc3ccc(F)cc3Cl)cccc2C(F)(F)F)c1` [Compound 260, N-(3-carbamoylphenyl)-2-(2-chloro-4-fluorophenoxy)-6-(trifluoromethyl)benzamide], the figure is 166 nM; as for `CC(C)(C)c1ccc(C(=O)Nc2cncc(C(N)=O)c2)c(Oc2ccc(C(F)(F)F)nc2)c1` [Compound 261, 5-(4-(tert-butyl)-2-((6-(trifluoromethyl)pyridin-3-yl)oxy)benzamido)nicotinamide], 1200 nM.

On to `CC(C)(C)c1ccc(C(=O)Nc2cc(C(N)=O)ccn2)c(Oc2ccc(C(F)(F)F)nc2)c1` [Compound 262], for which the IC50 is more than 25000 nM. Turning to `CC(C)(C)c1ccc(C(=O)Nc2ccnc(C(N)=O)c2)c(Oc2ccc(C(F)(F)F)nc2)c1` [Compound 266, 4-(4-(tert-butyl)-2-((6-(trifluoromethyl)pyridin-3-yl)oxy)benzamido)picolinamide], the 50% inhibitory concentration (IC50) was 17000 nM. For the compound `Cc1cc(F)ccc1Oc1cc(Cl)c(Cl)cc1C(=O)Nc1cccc(C(N)=O)c1` [Compound 267, N-(3-carbamoylphenyl)-4,5-dichloro-2-(4-fluoro-2-methyl-phenoxy)benzamide], the concentration for half-maximal inhibition (IC50) was determined as 7 nM. Same read-out and setting: as for `NC(=O)c1cccc(NC(=O)c2cc(Cl)c(Cl)cc2Oc2ccc(F)cc2)c1` [Compound 268, N-(3-carbamoylphenyl)-4,5-dichloro-2-(4-fluorophenoxy)benzamide], the figure is 14 nM; as for `COc1ccc(Oc2cc(Cl)c(Cl)cc2C(=O)Nc2cccc(C(N)=O)c2)c(OC)c1` [Compound 269, N-(3-carbamoylphenyl)-4,5-dichloro-2-(2,4-dimethoxyphenoxy)benzamide], 9 nM.

Another assay has as its target T1, truncated form of human NaV 1.8 with full channel activity. Briefly: E-VIPR Assay Method A for detecting and measuring Nav inhibition (HEK cells, membrane potential FRET dyes, electrical stimulation). As to conditions: HEK cells expressing human NaV 1.8, HS (human serum) in compound loading buffer, 11 point dose response, top dose 3 μM, Table 20A, read-out: Nav 1.8 MedChem Optical Assay EVIPR Assay Method A HS IC50. The assay is classed as cell-based. Summed up:
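Read-out: FRET membrane-potential dye ratio (460/580 nm) before and during E-VIPR field stimulation at 10 Hz for 10 s, expressed as % activity between DMSO and positive controls. Cells: HEK with truncated human NaV1.8; compound preincubated 30 min at room temp, final DMSO 0.625%.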
Take `Cc1cnc(C(N)=O)cc1NC(=O)c1c(Oc2ccc(OC(F)(F)F)c(F)c2)ccc(C(F)(F)F)c1F` [Compound 246, 4-[[2-fluoro-6-[3-fluoro-4-(trifluoromethoxy)phenoxy]-3-(trifluoromethyl)benzoyl]amino]-5-methyl-pyridine-2-carboxamide]: the 50% inhibitory concentration (IC50) was found to be 21 nM.

Take `NC(=O)c1ccc(NC(=O)c2c(Oc3ccc(OC(F)(F)F)cc3)ccc(C(F)(F)F)c2F)cc1` [Compound 264, N-(4-carbamoylphcnyl)-2-fluoro-6-(4-(trifluoromethoxy)phenoxy)-3-(trifluoromethyl)benzamide]: the half-inhibitory concentration (IC50) worked out at 54 nM.

Regarding `CNC(=O)c1cc(NC(=O)c2cnc(C(F)(F)F)cc2Oc2ccc(OC(F)(F)F)cc2OC)cc(C)n1` [Compound 265, 4-[[4-[2-methoxy-4-(trifluoromethoxy)phenoxy]-6-(trifluoromethyl)pyridine-3-carbonyl]amino]-N,6-dimethyl-pyridine-2-carboxamide], the half-inhibitory concentration (IC50) was found to be 1450 nM. On the same count and under the same terms, to `N#Cc1cc(F)ccc1Oc1ccc(C(F)(F)F)c(F)c1C(=O)Nc1ccc(F)c(C(N)=O)c1` [Compound 295, N-(3-carbamoyl-4-fluoro-phenyl)-6-(2-cyano-4-fluoro-phenoxy)-2-fluoro-3-(trifluoromethyl)benzamide] belongs 200 nM; to `COc1nc(Cl)ccc1Oc1ccc(C(F)(F)F)c(F)c1C(=O)Nc1ccnc(C(N)=O)c1` [Compound 303, 4-(6-((6-chloro-2-methoxypyridin-3-yl)oxy)-2-fluoro-3-(trifluoromethyl)benzamido)picolinamide], 190 nM.
